# Experimental data: a compilation of properties of binary mixtures (doi:10.1016/j.molliq.2022.120410)
# Experiment: xn = mol fraction of the nth substance listed
# Conditions: 101.3 kPa
structure (smiles),measurement,setting,value
OCCOCCO + CC[NH3+].O=[N+]([O-])[O-],speed of sound,"298.1 K, x2 = 0",1580.6 m/s
same,speed of sound,"308.1 K, x2 = 0",1556.6 m/s
CC[NH3+].O=[N+]([O-])[O-] + OCCOCCO,speed of sound,"298.1 K, x1 = 0.0488",1599.6 m/s
same,speed of sound,"298.1 K, x1 = 0.0983",1614.6 m/s
same,speed of sound,"298.1 K, x1 = 0.197",1632 m/s
same,speed of sound,"298.1 K, x1 = 0.2961",1639.9 m/s
same,speed of sound,"298.1 K, x1 = 0.3955",1644.5 m/s
same,speed of sound,"298.1 K, x1 = 0.4954",1643.9 m/s
same,speed of sound,"298.1 K, x1 = 0.5955",1643.2 m/s
same,speed of sound,"298.1 K, x1 = 0.6961",1641.7 m/s
same,speed of sound,"298.1 K, x1 = 0.797",1640 m/s
same,speed of sound,"298.1 K, x1 = 0.8983",1638.6 m/s
same,speed of sound,"308.1 K, x1 = 0.0488",1576.8 m/s
same,speed of sound,"308.1 K, x1 = 0.0983",1592 m/s
same,speed of sound,"308.1 K, x1 = 0.197",1609.6 m/s
same,speed of sound,"308.1 K, x1 = 0.2961",1619.1 m/s
same,speed of sound,"308.1 K, x1 = 0.3955",1625.4 m/s
same,speed of sound,"308.1 K, x1 = 0.4954",1625.6 m/s
same,speed of sound,"308.1 K, x1 = 0.5955",1626.3 m/s
same,speed of sound,"308.1 K, x1 = 0.6961",1625.6 m/s
same,speed of sound,"308.1 K, x1 = 0.8983",1622.8 m/s
same,speed of sound,"308.1 K, x1 = 1",1624.7 m/s
same,speed of sound,"318.1 K, x1 = 0.0488",1553.8 m/s
same,speed of sound,"318.1 K, x1 = 0.0983",1569.5 m/s
same,speed of sound,"318.1 K, x1 = 0.197",1587.5 m/s
same,speed of sound,"318.1 K, x1 = 0.2961",1598.3 m/s
same,speed of sound,"318.1 K, x1 = 0.3955",1605.9 m/s
same,speed of sound,"318.1 K, x1 = 0.4954",1607.3 m/s
same,speed of sound,"318.1 K, x1 = 0.5955",1609.1 m/s
same,speed of sound,"318.1 K, x1 = 0.6961",1609.1 m/s
same,speed of sound,"318.1 K, x1 = 0.797",1607.8 m/s
same,speed of sound,"318.1 K, x1 = 0.8983",1607.3 m/s
same,speed of sound,"318.1 K, x1 = 1",1609.3 m/s
